What was measured:
[1] = Blood levels after oral immediate release formulations; type: in vivo, human; details: for serum levels remained at or above: entire day
Description: Blood levels of 17α-ethynylandrost-5-ene-3β,7β,17β-triol were determined in adult patients dosed with a range of dosages as oral immediate release formulations. The formulations were essentially as described in example 3, with capsules containing 1 mg/capsule, 5 mg/capsule, 10 mg/capsule, 25 mg/capsule or 50 mg/capsule. These unit doses were filled into hard gelatin capsules (size #1 for […] doses; size #2 for the 1 and 5 mg doses) and micronized compound (D90˜[…]) was used.
Two capsules containing 1 mg of 17α-ethynylandrost-5-ene-3β,7β,17β-triol were administered twice per day to patients receiving a 4 mg/day total dose. […] Blood levels of the compound were at or above about 0.5 ng/mL for over 2 hours/day. […] In other patients receiving 4 mg/day for 28 days, there was a lower degree of response than patients receiving higher doses and 4 mg/day was considered to be the minimal effective dose.
Analysis of some of the evaluable patients from example 1 gave the following results. […] Drug exposure over 24 hours (AUC0-24) in patients receiving 10 mg/day (5 mg twice per day) ranged from 15.7 ng·hr/mL to 190 ng·hr/mL and from 72 ng·hr/mL to 198 ng·hr/mL in patients receiving 20 mg/day (10 mg twice per day). Drug exposure in patients receiving 40 mg/day (20 mg twice per day) ranged from 60 ng·hr/mL to 209 ng·hr/mL.

[2] = test system: toll-like receptor 4 (TLR4) signaling; assay: LPS-induced proinflammatory signaling in macrophages (Western blot, qNPA array); type: cell-based, mouse
Description: Methods. LPS and recombinant TNFα were obtained from Sigma. Anti-SREBP2 was obtained from Abcam (Cambridge, Mass.). Other primary antibodies were purchased from Cell Signaling Technology (Danvers, Mass.) unless otherwise indicated. Murine primary macrophages were elicited by intraperitoneal injection of thioglycollate (3 mL/mouse) in C57BL/6J mice. Macrophages were obtained from intraperitoneal lavage and washed twice. Cells were cultured in RPMI supplemented with 10% fetal bovine serum (FBS) for 3 days and then starved in RPMI supplemented with 0.5% FBS for overnight before the treatment. RAW 264.7 cells and 3T3-L1 cells were cultured essentially as described elsewhere (T. Yoshizaki, et al. Molecular and Cellular Biology, 29:1363-1374, 2009).
Gene expression analyses used total RNA extracted from tissue with Purelink total RNA purification system (Invitrogen) following the manufacturer's protocol. Total RNA (2 μg) was reverse-transcribed using iScript cDNA Synthesis Kit (Bio-Rad Laboratories, Hercules, Calif.). Primer sequences used in the PCR reactions were chosen based on the sequences available in GenBank. Primer sequences are available upon request. PCR was carried out using iTaq SYBR Green supermix (Bio-Rad Laboratories, Hercules, Calif.) on an MJ Research Chromo4 Real Time PCR system (Bio-Rad Laboratories BV, Hercules, Calif.). […] For Quantitative Nuclease Protection Assay (qNPA), cells were lysed in lysis buffer after various treatments. The qNPA ArrayPlate assays were performed by High Throughput Genomics, Inc.
For Western blots, cells were serum starved and pretreated with DMSO or 17α-ethynylandrost-5-ene-3β,7β,17β-triol (100 nM) for overnight before LPS (100 ng/ml) or TNFα (10 ng/ml) stimulation for the indicated times, and then were lysed in radioimmunoprecipitation buffer containing protease inhibitor cocktail (Roche) and phosphatase inhibitor cocktail (Sigma). Total cell lysates were separated by 10% SDS-PAGE. The blots were incubated first with blocking buffer (Tris-buffered saline containing 0.05% Tween 20 and 5.5% nonfat milk) followed by primary antibodies in blocking buffer or Tris-buffered saline containing 2% BSA. The bound antibodies were detected by horseradish peroxidase-conjugated secondary antibodies (1:4000, v/v) in blocking buffer and visualized by enhanced chemiluminescence.

[3] = 2 mg twice per day (4 mg/day), n=2
[4] = pretreatment 100 nM overnight, LPS 100 ng/ml, p<0.05

C#C[C@]1(O)CC[C@H]2[C@@H]3[C@@H](O)C=C4C[C@@H](O)CC[C@]4(C)[C@H]3CC[C@@]21C [17α-ethynylandrost-5-ene-3β,7β,17β-triol]
time with blood levels at or above about 0.5 ng/mL ([1]; 2 mg twice per day): over 2 hours/day | peak blood levels [1, 3]: 1 to 2 ng/mL | time of peak blood levels after dosing [1, 3]: 2 to 3 h | blood levels maintained ([1]; 2 mg twice per day, for over 2 hours/day): ≥ 0.5 ng/mL | peak serum levels ([1]; 10 mg twice per day (20 mg/day on a single day), n=2): 10 to 30 ng/mL | serum levels remained at or above ([1]; 10 mg twice per day): ≥ 3 ng/mL | serum levels remained at or above ([1]; 25 mg twice per day): ≥ 3 ng/mL | peak serum levels ([1]; 50 mg twice per day (100 mg/day), n=2): 80 to 150 ng/mL | serum levels remained at or above ([1]; 50 mg twice per day (100 mg/day)): ≥ 10 ng/mL | induction of cytochromes (liver enzymes) ([1]; 100 mg/day dose level): not observed | fasted Cmax lower compared to patients dosed after a meal ([1]; fasted vs fed status): up to 60% | mean Cmax ([1]; females (n=3), 20 mg/day (10 mg twice per day)): 13.8 ng/mL | Cmax levels in females vs males ([1]; in vivo): sometimes higher | total drug exposure levels, adult females vs adult males ([1]; in vivo): somewhat higher | mean Cmax ([1]; males (n=4), 20 mg/day (10 mg twice per day)): 15.1 ng/mL | mean Cmax ([1]; pre-diabetic hyperglycemic females (n=6), 10 mg per day (5 mg twice per day)): 11.2 ng/mL | mean Cmax ([1]; pre-diabetic hyperglycemic males (n=2), 10 mg per day (5 mg twice per day)): 3.8 ng/mL | mean Cmax ([1]; rheumatoid arthritis patients, females (n=6), 40 mg/day (20 mg twice per day)): 27.4 ng/mL | mean Cmax ([1]; rheumatoid arthritis patients, males (n=2), 40 mg/day (20 mg twice per day)): 43.7 ng/mL | LPS-induced activation of ERK [2, 4]: partially, but significantly, blocked | LPS-induced activation of IKK [2, 4]: partially, but significantly, blocked | LPS-induced activation of JNK [2, 4]: partially, but significantly, blocked | LPS-induced activation of p38 [2, 4]: partially, but significantly, blocked | IκB phosphorylation and degradation ([2]; pretreatment 100 nM, LPS): not influenced | NFκB phosphorylation ([2]; pretreatment 100 nM, LPS): reduced | LPS-induced transcription of Cxcl1 ([2]; qNPA array): significantly reduced | LPS-induced transcription of Cxcl10 ([2]; qNPA array): significantly reduced | LPS-induced transcription of IL-1β ([2]; qNPA array): significantly reduced | LPS-induced transcription of IL-6 ([2]; qNPA array): significantly reduced | LPS-induced transcription of IL-12 ([2]; qNPA array): significantly reduced | LPS-induced transcription of Nos2 ([2]; qNPA array): significantly reduced | LPS-induced transcription of TNFα ([2]; qNPA array): significantly reduced

Reference: patent publication US20100227841A1, “Patient populations and treatment methods” (Harbor BioSciencs, Inc., priority 2008, published 2010)
